# Source: US8748497B2, “Optimized fluorocarbon emulsions for blood substitutes and other therapeutic uses” (Alliance Pharmaceutical Corp., priority 2006, dated 2014)
# Read-outs that look alike come from different tables or passages of the source.
# Columns and labels:
# [1] = Phase 1 pharmacokinetics in healthy human volunteers; assay type: in vivo; conditions: human, blood; for AUC(0-t) / half-life: intravenous; for AUC(0-t): read-out: AUC (0-336); for half-life: read-out: t1/2. 12 h (initial elimination half-life within the first 12 h post dose) (converted); for Cmax: iv, healthy volunteers
# Procedure: Two randomised, controlled, double-blind, parallel group, Phase 1 studies were conducted in healthy human patients with the fluorocarbon emulsion made according to Example VI. Blood and expired air samples were analysed for PFOB and PFDB after a single intravenous dose of 1.2 or 1.8 g PFC/kg of the fluorocarbon emulsion of Example VI in healthy human volunteers to determine pharmacokinetics. Blood samples were collected up to 336 hours post-dosing.
# [2] = tissue distribution after single intravenous administration of the emulsion of Ex. VI, GC headspace; assay type: in vivo, Sprague Dawley rats; conditions: 24 hours; for concentration at 24 h: Sprague-Dawley, rat, intravenous
# Excerpt: (§1) This study was designed to assess the pharmokinetics and tissue distribution of PFOB and PFDB following a single intravenous administration of the emulsion of Ex. VI at various time intervals at dose levels of 1.8 and 3.6 g PFC/k in male and female Sprague Daley rats, aged 7-9 weeks, weight between 190-267 grams. For pharmacokinetics, 160 rats were divided into 20 groups (N=4 rats/sex/dose/time interval) and for tissue distribution, 156 rats were divided into 26 groups (n=3 rats/sex/dose/time interval). The time intervals for pharmacokinetics blood sampling were 0.083, 0.5, 1, 3, 6, 12, 36, 48, 72 and 96 hours. The time intervals for tissue sampling was predose, 24 hours, 1, 2, 4, 8, 13, 17, 21, 26, 39, 52 and 72 weeks.
# 26 groups (N=3 rats/sex/group). Prior to euthanasia, body weights were recorded. At designated times (see below), rats were anesthetized with METOFANE® and esanguinated via the abdominal artery. Blood was collected into syringes containing EDTA and transferred into sealed plastic containers for storage at approximately −20° C. until analyzed. Resultant data were included in the determination of pharmacokinetic parameters. The following tissues were collected from each rat and placed in sealed containers and stored frozen at −20° C. Prior to freezing, blood and tissue samples were processed for analysis. PFOB and PFDB were quantified in blood and tissues using a GC headspace method validated by Oread. The method was validated in the liver and then cross validated to all other tissues, blood, and serum. The tissues collected and analyzed include heart, lungs, abdominal fat, spleen, liver, mesenteric lymph nodes, kidneys, adrenals, testes, ovaries, uterus, whole brain, eyes, skeletal muscle, femoral bone marrow, and gastrointestinal tract.
# The concentration of PFOB and PFDB was determined in the tissues in both sexes at 12 time points. For the males, this was a total of 360 individual results including blood. There were 24 additional results for the female.
# [3] = pharmacokinetics in blood after single intravenous administration of the emulsion of Ex. VI; assay type: in vivo, Sprague Dawley rats; conditions: for half-life: Sprague-Dawley, rat, iv; for half-life / AUC(o-last) / AUC(o-∞) / Cl: blood; for Vd: terminal phase
# Excerpt: as §1
# Six pharmacokinetic parameters were determined following a single intravenous dose of 1.8 gPFC/kg or 3.6 g PFC/kg in both the male and female rats as shown in the tables below.
# [4] = pharmacokinetics in subjects undergoing CABG surgery with hypothermic CPB; assay type: in vivo, human
# Procedure: The pharmacokinetics of PFOB and PFDB were determined after the administration of the fluorocarbon formulation taught in Example VI to human subjects undergoing coronary artery bypass grafting or CABG surgery with hypothermic cardiopulmonary bypass. In group 1 and in group 2, human subjects received the fluorocarbon emulsion (2.7 g PFC/kg) as taught in Example VI directly into the bypass oxygenator after being put on bypass but before cooling was begun. In group 4, subjects received 2.7 g PFC/kg of the fluorocarbon emulsion of Example VI directly into the bypass oxygenator either prior to aortic cannulation or after being put on bypass, but before cooling was begun.
# [5] = pharmacokinetics in subjects undergoing noncardiac surgical procedures; assay type: in vivo, human; conditions: noncardiac surgery; for AUC(0-inf) / clearance / Cmax / half-life: human, whole blood; for clearance: read-out: CL (whole blood clearance) (converted); for Cmax: read-out: Cmax (maximum whole blood concentration); for half-life: read-out: T1/2 (elimination half-life) (converted)
# Procedure: The pharmacokinetics of PFOB and PFDB were determined after the administration of the fluorocarbon emulsion of Example VI to subjects undergoing total hip replacement or spinal surgery or a variety of urologic and gynaecologic procedures including radical retropubic prostatectomy, radical hysterectomy, cystectomy and combined procedures. Human subjects in one study received either 0.9 g PFC/kg or 1.8 g PFC/kg of the fluorocarbon formulation of Example VI and those in a second study received 1.8 g PFC/kg of the fluorocarbon formulation of Example VI.
# [6] = four compartment model; cited from earlier work
# [7] = 1.2 g PFC/kg, Table VII, 1.2 g PFC/kg
# [8] = 1.2 g PFC/kg, Table VIII, 1.2 g PFC/kg
# [9] = 1.8 g PFC/kg, Table VII, 1.8 g PFC/kg
# [10] = 1.8 g PFC/kg, Table VIII, 1.8 g PFC/kg
# [11] = female rats, 1.8 g PFC/kg single iv
# [12] = female rats, 3.6 g PFC/kg single iv
# [13] = male rats, 1.8 g PFC/kg single iv
# [14] = male rats, 3.6 g PFC/kg single iv
smiles,measurement,setting,value
"FC(F)(F)C(F)(F)C(F)(F)C(F)(F)C(F)(F)C(F)(F)C(F)(F)C(F)(F)Br [PFOB, perfluorooctyl bromide]",AUC(0-t),[1]; [7],10.2 µg·h/mL
same,half-life,[1]; [7],6.55 ± 2.06 h
same,AUC(0-t),[1]; [8],79200 µg·h/mL
same,half-life,[1]; [8],5.41 h
same,AUC(0-t),[1]; [9],285000 µg·h/mL
same,half-life,[1]; [9],10.5 ± 2.1 h
same,AUC(0-t),[1]; [10],239000 µg·h/mL
same,half-life,[1]; [10],7.66 h
same,Cmax,"[1]; 1.2 g PFC/kg, Table VII, 1.2 g PFC/kg single iv",13600 µg/mL
same,Cmax,"[1]; 1.2 g PFC/kg, Table VIII, 1.2 g PFC/kg single iv",12600 µg/mL
same,Cmax,"[1]; 1.8 g PFC/kg, Table VII, 1.8 g PFC/kg single iv",22700 µg/mL
same,Cmax,"[1]; 1.8 g PFC/kg, Table VIII, 1.8 g PFC/kg single iv",21800 µg/mL
same,concentration in the liver and bone marrow,[2]; all four groups,greater than 10 mg/g
same,percent of dose in liver,"[2]; female rats, 1.8 g PFC/kg",approximately 63%
same,percent of dose in spleen,"[2]; female rats, 1.8 g PFC/kg",approximately 4%
same,percent of dose in liver,"[2]; female rats, 3.6 g PFC/kg",approximately 53%
same,percent of dose in spleen,"[2]; female rats, 3.6 g PFC/kg",< 1%
same,concentration at 24 h,"[2]; female, females 1.8 g PFC/kg, all tissues except the blood, eyes, and skeletal muscle, read-out: concentration in tissues",> 100000 ng/g
same,concentration at 24 h,"[2]; female, females 3.6 g/kg of PFC, all tissues, read-out: concentration in tissues",> 100000 ng/g
same,percent of dose in liver,"[2]; male rats, 1.8 g PFC/kg",approximately 59%
same,percent of dose in spleen,"[2]; male rats, 1.8 g PFC/kg",< 1%
same,percent of dose in liver,"[2]; male rats, 3.6 g PFC/kg",approximately 69%
same,concentration at 24 h,"[2]; male, 3.6 g PFC/kg, males 3.6 PFC/kg, all tissues, read-out: concentration in tissues",> 100000 ng/g
same,concentration at 24 h,"[2]; male, males 1.8 g/kg of PFC, all tissues except the eyes and skeletal muscles, read-out: absolute concentration in tissues",> 100000 ng/g
same,half-life,"[3]; both sexes, 1.8 g/kg, male and female rats, 1.8 g PFC/kg, read-out: average terminal t1/2 (converted)",~73 h
same,half-life,"[3]; both sexes, 3.6 g/kg, male and female rats, 3.6 g PFC/kg, read-out: average terminal t1/2 (converted)",181 h
same,AUC(o-last),[3]; [11],126.86 mg·h/g
same,AUC(o-∞),[3]; [11],126.89 mg·h/g
same,Cl,[3]; [11],5.41 g/h/kg
same,Vd,[3]; [11],1605.67 g/kg
same,AUC(o-last),[3]; [12],541.55 mg·h/g
same,AUC(o-∞),[3]; [12],541.58 mg·h/g
same,Cl,[3]; [12],6.70 g/h/kg
same,Vd,[3]; [12],1182.97 g/kg
same,half-life,"[3]; female, 1.8 g/kg, female rats, 1.8 g PFC/kg single iv, last 3 or 4 data points, read-out: T1/2 (converted)",78.5 h
same,half-life,"[3]; female, 3.6 g/kg, female rats, 3.6 g PFC/kg single iv, last 3 or 4 data points, read-out: T1/2 (converted)",123 h
same,AUC(o-last),[3]; [13],122.65 mg·h/g
same,AUC(o-∞),[3]; [13],122.69 mg·h/g
same,Cl,[3]; [13],6.01 g/h/kg
same,Vd,[3]; [13],1443.18 g/kg
same,AUC(o-last),[3]; [14],566.13 mg·h/g
same,AUC(o-∞),[3]; [14],566.15 mg·h/g
same,Cl,[3]; [14],8.93 g/h/kg
same,Vd,[3]; [14],2191.83 g/kg
same,half-life,"[3]; male, 1.8 g/kg, male rats, 1.8 g PFC/kg single iv, last 3 or 4 data points, read-out: T1/2 (converted)",68.2 h
same,half-life,"[3]; male, 3.6 g/kg, male rats, 3.6 g PFC/kg single iv, last 3 or 4 data points, read-out: T1/2 (converted)",238 h
same,whole blood concentration relative to PFDB,[4],~30 fold
same,AUC(0-inf),"[4]; human, whole blood, other: directly into the bypass oxygenator, 2.7 g PFC/kg",300000 µg·h/mL
same,clearance,"[4]; human, whole blood, other: directly into the bypass oxygenator, 2.7 g PFC/kg, read-out: CL (whole blood clearance) (converted)",0.165 mL/min/kg
same,Cmax,"[4]; human, whole blood, other: directly into the bypass oxygenator, 2.7 g PFC/kg, read-out: Cmax (maximum whole blood concentration)",30300 µg/mL
same,half-life,"[4]; human, whole blood, other: directly into the bypass oxygenator, 2.7 g PFC/kg, read-out: T1/2 (elimination half-life) (converted)",7.65 ± 2.71 h
same,AUC(0-inf),[5]; 0.9 g PFC/kg,13300 µg·h/mL
same,clearance,[5]; 0.9 g PFC/kg,1.61 mL/min/kg
same,Cmax,[5]; 0.9 g PFC/kg,7680 µg/mL
same,half-life,[5]; 0.9 g PFC/kg,2.36 ± 3.06 h
same,AUC(0-inf),[5]; 1.8 g PFC/kg,57400 µg·h/mL
same,clearance,[5]; 1.8 g PFC/kg,0.703 mL/min/kg
same,Cmax,[5]; 1.8 g PFC/kg,17500 µg/mL
same,half-life,[5]; 1.8 g PFC/kg,3.77 ± 2.69 h
same,whole blood concentration relative to PFDB,[5],approximately 30 fold
same,rate constant k10,[6],≈ 0.000 hr^−1
same,rate constant k12,[6],≈ 0.04 hr^−1
same,rate constant k24,[6],≈ 0.006 hr^−1
same,rate constant k34,[6],≈ 0.002 hr^−1
same,rate constant k40,[6],≈ 0.07 hr^−1
same,rate constant k42,[6],≈ 0.002 hr^−1
